Like-named read-outs stand apart in the source and are kept apart here.
Tests used:
GluA2/3 = target: T1, GluA2/3 (UniProt P19491+P42263); experiment: Whole-cell patch clamp recordings of heteromeric GluA2/3 AMPA receptor currents and kinetics in transfected HEK293t cells; type: cell-based; settings: for Amplitude (peak whole-cell current in presence of compound): 16 µM compound co-applied with agonist, HEK293t, −60 mV, pH 7.4, 22 °C; for Amplitude (peak whole-cell current in presence of compound) / A/AI (amplitude ratio, glutamate alone / with compound) / t deact (weighted deactivation time constant) / t des (weighted desensitization time constant) / Amplitude, applying glutamate alone after compound: mean ± SD; for Amplitude (peak whole-cell current in presence of compound) / A/AI (amplitude ratio, glutamate alone / with compound) / Amplitude, applying glutamate alone after compound: n = 10; for A/AI (amplitude ratio, glutamate alone / with compound): 16 µM compound; for t deact (weighted deactivation time constant): 10 mM glutamate for 1 ms; for t deact (weighted deactivation time constant) / t des (weighted desensitization time constant): with compound; for t des (weighted desensitization time constant): 10 mM glutamate for 500 ms; for Amplitude, applying glutamate alone after compound: glutamate alone after the compound; for Effect on deactivation kinetics (τdeac), in words / Effect on desensitization kinetics (τdes), in words: versus glutamate alone, one-way ANOVA
T1 construct: expressed in transfected cells; host or cells: HEK293T (HEK293) cells, transient co-transfection
Excerpt: (§1) The AMPA receptor subunits utilized in this study were of the flip isoform. The flip variant of the GluA2 subunit was originally provided by S. F. Heinemann (Salk Institute, La Jolla, CA, USA) in a pBlueScript plasmid. This plasmid was subsequently sub-cloned into a pRK vector to enable expression in HEK293 cells, which were sourced from Sigma, Germany. Additionally, the unedited version of GluA2 (R607Qjj, flip isoform) and enhanced green fluorescent protein (EGFP), both contained in pRK5 vectors, were generously supplied by P. H. Seeburg (Max Planck Institute for Medical Research, Heidelberg, Germany). Chemical-mediated ways induced transfection. GluA2 homomers were expressed into HEK293 cells by the co-transfection of 1 μg GluA2 plasmid with an equal amount of GFP expression vectors (1:1 ratio) into the cells. In addition, co-transfection was conducted for heteromeric GluA2/3 subunits at a ratio of 1:1.2 for optimum expression. For post-transfection experiments, cells were plated in 10% fetal calf serum and antibiotics in DMEM in Petri plates. These cultures were maintained under carefully controlled conditions—37 °C and 5% CO2 within a humidified incubator. The selection of cells for recordings was based on fluorescence intensity. Highly GFP-positive cells were identified and isolated for further analysis, ensuring precise targeting of transfected populations.
(§2) Whole-cell patch clamp recordings were performed on HEK293t cells 36–48 h after transfection. Experiments were conducted at 22 °C, maintaining a holding potential of −60 mV, using an Integrated Patch Amplifier (IPA) from Sutter Instruments (Novato, CA, USA). Data acquisition was managed with SutterPatch Software v. 1.1.1 (Sutter Instruments), employing a sampling rate of 10 kHz and setting the low-pass filter at 2 kHz. […] The external solution contained 150 mM NaCl, 2.8 mM KCl, 0.5 mM MgCl2, 2 mM CaCl2, and 10 mM HEPES, adjusted to a pH of 7.4 using NaOH. The internal pipette solution was composed of 110 mM CsF, 30 mM CsCl, 4 mM NaCl, 0.5 mM CaCl2, 10 mM trypsin-EDTA solution B (0.25%), 0.05% EDTA, and 10 mM HEPES, with the pH adjusted to 7.2 using CsOH.
(§3) A dual-barrel glass pipette (theta tube) was employed for the rapid delivery of glutamate and other solutions. The theta tube was attached to a high-speed piezoelectric solution exchange system (Automate Scientific, Berkeley, CA, USA). To assess the efficiency of solution exchange, open-tip potentials were measured by applying solutions with different ionic compositions after the patch was expelled from the pipette. The time required for a 10–90% change in the solution was generally less than […].
(§4) Data analysis was performed with Igor Pro8.04 software (Wave Metrics, Inc., Portland, OR, USA). AMPA receptor deactivation and desensitization kinetics were measured by applying 10 mM glutamate for 1 ms and 500 ms, respectively. The currents from the AMPA receptor were fitted to a double-exponential model to quantify deactivation and desensitization time constants measured from the double-exponential fits. The weighted tau (τw) is calculated as: τw = (τf × af) + (τs × as), where τf and τs are the time constants of fast and slow exponential components and af and as represent their relative amplitudes.
(§5) Data are presented as the mean ± standard deviation (SD). The total number of HEK293 cells engaged was n = 10. The experimental groups were compared to the wild type using a one-way analysis of variance (ANOVA). Statistical significance was assessed using p values: p < 0.05 (*) indicated significance, p < 0.01 (**) indicated high significance, and p < 0.001 (***) indicated very high significance. The value “ns” indicates non-significance. Concentration–response relationships were modeled using the Hill equation with the resulting combined plots via GraphPad Prism software (version 6.01, GraphPad Software). The data presented are the means from 3–4 experimental replicates. […]

GluA2 = target: T2, GluA2 (Rattus norvegicus, UniProt P19491); experiment: Whole-cell patch clamp recordings of homomeric GluA2 AMPA receptor currents and kinetics in transfected HEK293t cells; type: cell-based; settings: for Amplitude (peak whole-cell current in presence of compound): 16 µM compound co-applied with agonist, HEK293t, −60 mV, pH 7.4, 22 °C; for Amplitude (peak whole-cell current in presence of compound) / A/AI (amplitude ratio, glutamate alone / with compound) / t deact (weighted deactivation time constant) / t des (weighted desensitization time constant) / Amplitude, applying glutamate alone after compound: mean ± SD; for Amplitude (peak whole-cell current in presence of compound) / A/AI (amplitude ratio, glutamate alone / with compound) / Amplitude, applying glutamate alone after compound: n = 10; for A/AI (amplitude ratio, glutamate alone / with compound): 16 µM compound; for t deact (weighted deactivation time constant): 10 mM glutamate for 1 ms; for t deact (weighted deactivation time constant) / t des (weighted desensitization time constant): with compound; for t des (weighted desensitization time constant): 10 mM glutamate for 500 ms; for Amplitude, applying glutamate alone after compound: glutamate alone after the compound; for Effect on deactivation kinetics (τdeac), in words / Effect on desensitization kinetics (τdes), in words: versus glutamate alone, one-way ANOVA
T2 construct: expressed in transfected cells; host or cells: HEK293T (HEK293) cells, transient co-transfection with a separate EGFP vector
Excerpt: as §1, §2, §3, §4, §5

[1] = concentration–response fit, read-out: Log IC50 (converted)
[2] = inhibition of whole-cell peak current, concentration–response, Hill fit, read-out: IC50

T2 sequence (P19491 22-883 isoform P19491-2 limits assumed): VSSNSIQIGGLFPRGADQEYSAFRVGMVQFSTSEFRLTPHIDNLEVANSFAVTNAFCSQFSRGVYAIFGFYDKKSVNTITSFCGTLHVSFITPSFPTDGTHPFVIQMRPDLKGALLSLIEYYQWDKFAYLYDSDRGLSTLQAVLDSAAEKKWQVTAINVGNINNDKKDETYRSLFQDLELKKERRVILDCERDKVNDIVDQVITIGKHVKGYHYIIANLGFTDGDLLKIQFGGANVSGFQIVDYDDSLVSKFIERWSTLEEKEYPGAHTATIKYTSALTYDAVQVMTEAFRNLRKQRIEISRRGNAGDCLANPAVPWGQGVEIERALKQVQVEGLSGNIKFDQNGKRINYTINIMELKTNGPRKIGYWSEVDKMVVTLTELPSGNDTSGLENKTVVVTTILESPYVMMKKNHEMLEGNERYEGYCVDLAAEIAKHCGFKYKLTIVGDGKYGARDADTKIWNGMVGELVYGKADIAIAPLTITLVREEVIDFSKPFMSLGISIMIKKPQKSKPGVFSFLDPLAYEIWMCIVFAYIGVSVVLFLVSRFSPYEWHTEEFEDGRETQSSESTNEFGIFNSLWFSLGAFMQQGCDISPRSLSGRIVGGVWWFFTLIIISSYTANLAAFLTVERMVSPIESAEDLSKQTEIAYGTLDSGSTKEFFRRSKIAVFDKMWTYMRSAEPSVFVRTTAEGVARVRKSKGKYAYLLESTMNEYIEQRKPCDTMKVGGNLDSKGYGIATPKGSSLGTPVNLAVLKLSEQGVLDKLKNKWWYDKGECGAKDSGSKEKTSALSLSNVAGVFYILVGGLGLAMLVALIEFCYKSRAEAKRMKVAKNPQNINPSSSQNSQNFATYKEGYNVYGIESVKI
T1 sequence (P19491 22-883 isoform P19491-2 limits assumed): as above
T1 sequence (P42263 29-894 isoform P42263-2 limits assumed): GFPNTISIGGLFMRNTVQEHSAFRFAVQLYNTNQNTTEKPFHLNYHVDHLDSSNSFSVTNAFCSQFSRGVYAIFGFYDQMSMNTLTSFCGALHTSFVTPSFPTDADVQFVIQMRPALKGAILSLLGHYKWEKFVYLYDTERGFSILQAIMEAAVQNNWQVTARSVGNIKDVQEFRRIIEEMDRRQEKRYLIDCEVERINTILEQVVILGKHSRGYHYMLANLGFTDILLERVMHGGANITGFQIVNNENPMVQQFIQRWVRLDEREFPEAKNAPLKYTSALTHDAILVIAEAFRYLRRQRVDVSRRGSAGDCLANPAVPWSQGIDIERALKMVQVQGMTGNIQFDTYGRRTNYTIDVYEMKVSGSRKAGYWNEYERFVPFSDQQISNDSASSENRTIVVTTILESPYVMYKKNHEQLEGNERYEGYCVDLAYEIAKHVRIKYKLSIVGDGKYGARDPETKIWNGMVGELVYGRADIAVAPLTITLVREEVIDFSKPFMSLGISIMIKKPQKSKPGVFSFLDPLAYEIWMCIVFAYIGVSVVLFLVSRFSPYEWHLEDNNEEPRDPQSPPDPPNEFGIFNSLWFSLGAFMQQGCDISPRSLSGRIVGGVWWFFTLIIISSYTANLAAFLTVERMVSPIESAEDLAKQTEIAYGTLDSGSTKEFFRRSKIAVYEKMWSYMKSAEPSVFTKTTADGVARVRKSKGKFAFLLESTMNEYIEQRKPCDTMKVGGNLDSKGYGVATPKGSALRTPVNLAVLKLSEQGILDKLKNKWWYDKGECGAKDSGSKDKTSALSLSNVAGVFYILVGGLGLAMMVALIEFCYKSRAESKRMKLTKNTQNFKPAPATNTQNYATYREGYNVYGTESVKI

| Structure (SMILES) | Amplitude (peak whole-cell current in presence of compound) (GluA2/3) [pA] | A/AI (amplitude ratio, glutamate alone / with compound) (GluA2/3) | t deact (weighted deactivation time constant) (GluA2/3) [ms] | IC50 (GluA2/3; [1]) [µM] | Amplitude, applying glutamate alone after compound (GluA2/3) [pA] | IC50 (GluA2/3; [2]) [µM] | Amplitude (peak whole-cell current in presence of compound) (GluA2) [pA] | A/AI (amplitude ratio, glutamate alone / with compound) (GluA2) | t deact (weighted deactivation time constant) (GluA2) [ms] | IC50 (GluA2; [1]) [µM] | Amplitude, applying glutamate alone after compound (GluA2) [pA] | IC50 (GluA2; [2]) [µM] | t des (weighted desensitization time constant) (GluA2/3) [ms] | Effect on deactivation kinetics (τdeac), in words (GluA2/3) | Effect on desensitization kinetics (τdes), in words (GluA2/3) | t des (weighted desensitization time constant) (GluA2) [ms] | Effect on deactivation kinetics (τdeac), in words (GluA2) | Effect on desensitization kinetics (τdes), in words (GluA2) |
| --- | --- | --- | --- | --- | --- | --- | --- | --- | --- | --- | --- | --- | --- | --- | --- | --- | --- | --- |
| COc1ccc(NC(=O)c2c(-c3c(Cl)cccc3Cl)noc2C)cc1OC [CIC-6, 3-(2,6-dichlorophenyl)-N-(3,4-dimethoxyphenyl)-5-methylisoxazole-4-carboxamide] | 116±10 | 4.76±0.14 | 5.3 ± 0.3 | 5.75 | 534±56 | 5.76 | 256±19 | 4.84±0.23 | 5.4 ± 0.2 | 5.75 | 1202±120 | 5.74 | 1.6 ± 0.1 | statistically significant prolongation of τdeac | accelerated desensitization, although to a lesser degree | 1.5 ± 0.1 | statistically significant prolongation of τdeac | accelerated desensitization, although to a lesser degree |
| COc1ccccc1Oc1ccc(NC(=O)c2c(-c3c(Cl)cccc3Cl)noc2C)cc1 [CIC-7, 3-(2,6-dichlorophenyl)-N-(4-(2-methoxyphenoxy)phenyl)-5-methylisoxazole-4-carboxamide] | 120±15 | 4.49±0.21 | 5.2 ± 0.2 | 6.17 | 524±76 | 6.14 | 280±13 | 4.53±0.21 | 5.1 ± 0.2 | 6.03 | 1231±106 | 6.03 | 1.8 ± 0.1 | statistically significant prolongation of τdeac | accelerated desensitization, although to a lesser degree | 1.7 ± 0.1 | statistically significant prolongation of τdeac | accelerated desensitization, although to a lesser degree |
| Cc1onc(-c2c(Cl)cccc2Cl)c1C(=O)Nc1ccccc1 [CIC-8, 3-(2,6-dichlorophenyl)-5-methyl-N-phenylisoxazole-4-carboxamide] | 123±20 | 4.30±0.20 | 4.9 ± 0.3 | 6.31 | 513±99 | 6.3 | 291±22 | 4.36±0.19 | 4.8 ± 0.2 | 6.17 | 1235±151 | 6.21 | 1.9 ± 0.1 | statistically significant prolongation of τdeac | accelerated desensitization, although to a lesser degree | 1.9 ± 0.1 | statistically significant prolongation of τdeac | accelerated desensitization, although to a lesser degree |

Now those with a lower IC50 (GluA2/3; [2]), led by results:

| Amplitude (peak whole-cell current in presence of compound) (GluA2/3) [pA] | A/AI (amplitude ratio, glutamate alone / with compound) (GluA2/3) | t deact (weighted deactivation time constant) (GluA2/3) [ms] | IC50 (GluA2/3; [1]) [µM] | Amplitude, applying glutamate alone after compound (GluA2/3) [pA] | IC50 (GluA2/3; [2]) [µM] | Amplitude (peak whole-cell current in presence of compound) (GluA2) [pA] | A/AI (amplitude ratio, glutamate alone / with compound) (GluA2) | t deact (weighted deactivation time constant) (GluA2) [ms] | IC50 (GluA2; [1]) [µM] | Amplitude, applying glutamate alone after compound (GluA2) [pA] | IC50 (GluA2; [2]) [µM] | Structure (SMILES) | t des (weighted desensitization time constant) (GluA2/3) [ms] | Effect on deactivation kinetics (τdeac), in words (GluA2/3) | Effect on desensitization kinetics (τdes), in words (GluA2/3) | t des (weighted desensitization time constant) (GluA2) [ms] | Effect on deactivation kinetics (τdeac), in words (GluA2) | Effect on desensitization kinetics (τdes), in words (GluA2) |
| --- | --- | --- | --- | --- | --- | --- | --- | --- | --- | --- | --- | --- | --- | --- | --- | --- | --- | --- |
| 101±10 | 5.50±0.26 | 6.2 ± 0.3 | 4.9 | 542±66 | 4.92 | 223±15 | 5.60±0.27 | 6.3 ± 0.3 | 4.79 | 1216±119 | 4.82 | COc1cc(NC(=O)c2c(-c3c(Cl)cccc3Cl)noc2C)cc(OC)c1 [CIC-3, 3-(2,6-dichlorophenyl)-N-(3,5-dimethoxyphenyl)-5-methylisoxazole-4-carboxamide] | 0.9 ± 0.1 | statistically significant prolongation of τdeac | significantly accelerated desensitization | 0.9 ± 0.1 | statistically significant prolongation of τdeac | significantly accelerated desensitization |
| 110±16 | 4.97±0.23 | 5.7 ± 0.3 | 5.37 | 531±89 | 5.4 | 250±22 | 5.0±0.23 | 5.6 ± 0.3 | 5.25 | 1220±157 | 5.26 | COc1cc(NC(=O)c2c(-c3c(Cl)cccc3Cl)noc2C)cc(OC)c1OC [CIC-4, 3-(2,6-dichlorophenyl)-5-methyl-N-(3,4,5-trimethoxyphenyl)isoxazole-4-carboxamide] | 1.1 ± 0.1 | statistically significant prolongation of τdeac | accelerated desensitization, although to a lesser degree | 1.1 ± 0.1 | statistically significant prolongation of τdeac | accelerated desensitization, although to a lesser degree |
| 105±7 | 5.37±016 | 6.2 ± 0.3 | 5.13 | 548±40 | 5.14 | 228±15 | 5.42±0.07 | 6.1 ± 0.3 | 5.01 | 1198±99 | 5.03 | COc1ccc(NC(=O)c2c(-c3c(Cl)cccc3Cl)noc2C)c(OC)c1 [CIC-5, 3-(2,6-dichlorophenyl)-N-(2,4-dimethoxyphenyl)-5-methylisoxazole-4-carboxamide] | 1.0 ± 0.1 | statistically significant prolongation of τdeac | accelerated desensitization, although to a lesser degree | 1.0 ± 0.1 | statistically significant prolongation of τdeac | accelerated desensitization, although to a lesser degree |

Source: article PMC11932207, “Regulating AMPA Receptors with Isoxazole-4-Carboxamide Derivatives: An Electrophysiological Study” (Journal of Xenobiotics, 2025)
